Measurements taken from article PMC6115460, “Extreme amyloid polymorphism in Staphylococcus aureus virulent PSMα peptides” (Nature Communications, 2018).

Experiments:
Micrococcus luteus = experiment: Disc diffusion assay testing antibacterial activity; assay type: cell-based; settings: peptide 50 mg ml−1 in ultra-pure water (LFKFFK, KLFKFFK) or DMSO (IIKVIK, IIKIIK) loaded on discs, LB-agar, incubated over-night, coincides with activity in solution (Supplementary Fig. 4)
Experimental: (§1) Micrococcus luteus (an environmental isolate) was a kind gift from Prof. Charles Greenblatt from the Hebrew university in Jerusalem, Israel. An inoculum was grown in Luria-Bertani (LB) medium at 30 °C with 220 rpm shaking overnight. Staphylococcus hominis (ATTC 27844) and Staphylococcus aureus (ATCC 25923) were purchased from ATCC, USA. An inoculum was grown in brain-heart infusion (BHI) media at 37 °C with 220 rpm shaking overnight.
(§2) Bacterial cultures were grown overnight as described above and diluted 1000-fold to a fresh media until growth reached to optical density of ~0.4 measured at 600 nm (OD600). The refreshed cultures were plated on LB-agar or BHI-agar according to the bacterial strain. The antibacterial activity of PSMα segments was examined: Lyophilized peptides were dissolved in ultra-pure water (LFKFFK and KLFKFFK) or DMSO (IIKVIK and IIKIIK) to a final concentration of 50 mg ml^−1. The concentrated peptide solutions were loaded on blank antimicrobial susceptibility discs (Oxoid, UK). Discs loaded with ultra-pure water or DMSO were used as controls. The discs were gently placed on bacteria plated agar and incubated over-night at the appropriate temperatures.

Staphylococcus hominis = experiment: as above; assay type: cell-based; settings: ATTC 27844, peptide 50 mg ml−1 in ultra-pure water (LFKFFK, KLFKFFK) or DMSO (IIKVIK, IIKIIK) loaded on discs, BHI-agar, incubated over-night, coincides with activity in solution (Supplementary Fig. 4)
Experimental: as §1, §2

[1] = Fibril formation by transmission electron microscopy; assay type: physicochemical; settings: negative stain TEM
Experimental: Fibrillated PSMα1 and PSMα4 samples were collected following the ThT fibrillation kinetics assay (as described above) by combining the contents of 2–3 wells from the plate. Solutions were centrifuged at 21,000 × g and the supernatant was discarded. The pellet containing the fibrils was re-suspended in 20 μl of ultra-pure water.
Fibril formation of the short segments, IIKIIK, IIKVIK, LFKFFK and KLFKFFK, was examined for peptides dissolved directly from the powder form. IIKVIK from PSMα1 and IIKIIK from PSMα4 were re-suspended to 20 mM with 75% DMSO in ultra-pure water and incubated for about 1 week at room temperature (Fig. 2b). LFKFFK and KLFKFFK from PSMα3 were re-suspended in ultra-pure water to 10 mM. LFKFFK was incubated for about a month and KLFKFFK was incubated for 14 days at room temperature (Fig. 3b).
Five-microliter samples were applied directly onto copper TEM grids with support films of Formvar/Carbon (Ted Pella), which were charged by glow-discharge (PELCO easiGlow, Ted Pella) immediately before use. Grids were allowed to adhere for 2 min and negatively stained with 5 μl of 2% uranyl acetate solution. Micrographs were recorded using FEI Tecnai G2 T20 S-Twin transmission electron microscope operated at an accelerating voltage of 200 KeV (located at the Department of Materials Science & Engineering at the Technion, Israel), FEI Tecnai G2 T12 TEM operated at an accelerating voltage of 120 kV (located at the Russell Berrie Electron Microscopy Center of Soft Matter at the Technion, Israel). Images were recorded digitally by a Gatan US 1000 CCD camera using the DigitalMicrograph® software.

[2] = Fibril thermal-stability assay (TEM); assay type: physicochemical; settings: 10 mM (LFKFFK in ultra-pure water, IIKIIK in DMSO), 3 days at room temperature, 50 °C for 5 min, then cooled at room temperature 20 min
Experimental: For the fibril thermal-stability assay (Fig. 5), peptides were dissolved to 10 mM (LFKFFK in ultra-pure water and IIKIIK in DMSO) and incubated at room temperature for 3 days. Samples were applied directly onto copper TEM grids and stained as described above. The samples were then incubated at 50 °C in a pre-heated thermoblock for 5 min and immediately applied onto TEM grids. The samples were then allowed to cool down at room temperature for 20 min and applied onto TEM grids. Micrographs were recorded as described above.

Staphylococcus aureus = experiment: Disc diffusion assay testing antibacterial activity; assay type: cell-based; settings: ATCC 25923, peptide 50 mg ml−1 in ultra-pure water loaded on discs, BHI-agar, incubated over-night
Experimental: as §1, §2

[3] = Thioflavin T fluorescence fibrillation kinetics assay; settings: 50 µM peptide, 200 µM ThT; Tris buffer pH 7.5 (PSMα1 and mutant) or ultra-pure water (PSMα4 and mutant); 37 °C; about 100 h; mean of triplicates
Experimental: Final concentrations for each reaction were 50 µM peptide (PSMα1, PSMα4, or their mutants) and 200 µM ThT. Blank solutions were also prepared for each reaction, containing everything but the peptides. The reaction mixture was carried out in a black 96-well flat-bottom plate (Greiner bio-one) covered with a thermal seal film (EXCEL scientific) and incubated in a plate reader (CLARIOstar BMG LABTECH) at a temperature of 37 °C with 500 rpm shaking for 85 s before each reading cycle, and up to 1000 cycles of 6 min each. Measurements were made in triplicates. Fluorescence was measured by excitation at 438 ± 20 nm and emission at 490 ± 20 nm over a period of about 100 h. All triplicate values were averaged, appropriate blanks were subtracted, and the resulting values were plotted against time. Calculated standard errors of the mean are presented as error bars. The entire experiment was repeated at least three times on different days.

[4] = 20 mM in 75% DMSO in ultra-pure water, about 1 week at room temperature
[5] = 10 mM in ultra-pure water, room temperature, LFKFFK about a month, KLFKFFK 14 days

| Substance | antibacterial activity against M. luteus (Micrococcus luteus) | antibacterial activity against S. hominis (Staphylococcus hominis) | fibril formation, electron micrographs [1, 4] | thermal stability of fibrils [2] | toxicity to S. aureus (Staphylococcus aureus) | fibril formation, electron micrographs [1, 5] | Thioflavin T binding [3] |
| --- | --- | --- | --- | --- | --- | --- | --- |
| IIKIIK [spine segment of PSMα4; acetylated N-terminus and amidated C-terminus, or unmodified termini for crystallography] | do not elicit antibacterial activity | do not elicit antibacterial activity | fibrils | remain stable |  |  |  |
| IIKVIK [spine segment of PSMα1; acetylated N-terminus and amidated C-terminus, or unmodified termini for crystallography] | do not elicit antibacterial activity | do not elicit antibacterial activity | fibrils |  |  |  |  |
| KLFKFFK [one-residue longer PSMα3 segment] | dose-dependent antibacterial activity | dose-dependent antibacterial activity |  |  | not toxic | straight and twisted crystalline fibrils |  |
| LFKFFK [truncated segment of PSMα3; acetylated N-terminus and amidated C-terminus, or unmodified termini for crystallography] | dose-dependent antibacterial activity | dose-dependent antibacterial activity |  | dissolve upon heating to 50 °C, and reform upon cooling | not toxic | fibrils and nano-crystals |  |
| MAIVGTIPKPIKAIIDIFAK |  |  |  |  |  |  | no ThT binding |
| MGIIAGPIPVIKSLIEQFTGK |  |  |  |  |  |  | no ThT binding |
